Test results reported in PMC12381781, “Structural and functional insights into the selective inhibition of mutant tau aggregation by purpurin and oleocanthal in frontotemporal dementia” (Protein Science : A Publication of the Protein Society, 2025).
“Also recorded” adds a separate entry of the source. Where two headings read alike, the source gives them in different places.

Assays:
[1] = system: preformed R2R3 (N279K) fibrils; experiment: Elongation of preformed R2R3 (N279K) fibrils, ThT; format: biochemical; conditions: R2R3 N279K pre-aggregated 24 h, compound 10 μM
Description: (§1) Peptides were pre‐aggregated for 24 h with aggregation kinetics monitored by ThT fluorescence, after which 10 μM PUR or OLC was added, followed by an additional 24–30 h of incubation (Figure 4a). Aggregation kinetics was monitored by ThT fluorescence, and elongation was quantified as the AUC following compound addition, normalized to each replicate's maximum pre‐treatment fluorescence (Figure 4b). […] WT peptide fibril elongation was reduced to 15.5 ± 2.8% (PUR) and 45.2 ± 3.2% (OLC), and P301L peptide fibril elongation was limited to 31.8 ± 0.6% (PUR) and 85.6 ± 2.2% (OLC) (Figure 4b). Fluorescence microscopy imaging further confirmed the presence of reduced ThT‐positive aggregates following the addition of PUR and OLC (Figure S12). Similar inhibition trends, with PUR outperforming OLC, were also observed for V287I and N279K peptides (Figure S12).
(§2) Figure S13. […] (a) ThT fluorescence kinetics of pre-aggregated R2R3 (V287I and N279K ) tau peptides treated with PUR or OLC (10 µM). Peptides were first allowed to aggregate for 24 h, followed by compound addition and continued incubation for an additional 24-30 h. […] Curves are normalized to each replicate’s maximum pre-treatment ThT fluorescence. […] (b) Aggregation levels post-treatment, expressed as a percentage of control (untreated fibrils), calculated from the AUC after compound addition. […]

R2R3 (P301L) tau peptide [2] = target: T1, R2R3 (P301L) tau peptide (Homo sapiens, UniProt P10636, P618L); experiment: SPR titration cycle kinetics, immobilized R2R3 (P301L) peptide; format: binding
T1 sequence (P10636 592-653 P618L): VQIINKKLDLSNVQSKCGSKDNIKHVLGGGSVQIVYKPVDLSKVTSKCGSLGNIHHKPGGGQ
Description: (§3) SPR experiments were conducted using the Sierra® SPR‐24 Pro system (Bruker Daltonics, Bremen, Germany), featuring a gold‐coated microfluidic array (24 detection spots, 3 × 8 format). Data acquisition and kinetic analysis were performed using SPR Analyzer 4 software.
(§4) All experiments were conducted at 25°C using PBS (pH 7.4) supplemented with 0.05% Tween‐20 and 5% DMSO as the running buffer to ensure assay reproducibility. Assay components, including 96‐well microtiter plates (Part # 1862984; Burker) and Microplate and Reservoir Sealer (Part #1862985; Burker), were used for sample handling and were compatible with the Sierra SPR®‐24 Pro system (Bruker Daltonics, Billerica, MA, USA).
(§5) WT and mutant (P301L, V287I, and N279K) tau peptides were dissolved in 10 mM sodium acetate buffer (pH 5.0; Burker) and immobilized onto High‐Capacity Amine Sensor Surfaces (Part #1862614; Bruker) using the Amine Coupling Kit (Part #1862634; Bruker). The sensor surface was preconditioned with a Surface Elution Buffer (Part #1862656; Bruker Daltonics) and 0.1M HCl to remove contaminants and improve binding specificity.
The surface was activated using 400 mM 1‐ethyl‐3‐(3‐dimethylaminopropyl) carbodiimide (Burker) and 50 mM N‐hydroxysuccinimide (Burker), enabling covalent attachment of tau peptides. Unreacted binding sites were blocked with 1M ethanolamine‐HCl (pH 8.5; Burker) to minimize nonspecific interactions. For each experiment, specific sensor spots (A/B/C) on channels 1–8 were designated for tau‐analyte interactions, with corresponding reference spots on the same channel for baseline correction. DMSO calibration solutions (4.6%, 4.8%, 5%, 5.2%, and 5.4%) were prepared for double referencing to compensate for DMSO solvent effects.
(§6) PUR and OLC were prepared in PBS (pH 7.4) supplemented with 0.05% Tween‐20 and 5% DMSO. Compound interactions with tau peptides were pre‐screened using a concentration range of 1–100 μM, and subsequent binding kinetics were evaluated at optimized concentrations. For kinetic studies, PUR was tested at 20–30 μM, while OLC was tested at 25–100 μM using two‐fold serial dilutions. Each analyte was sequentially injected, and association and dissociation phases were monitored to determine kinetic parameters.
SPR binding kinetics were assessed using the titration cycle kinetics (TCK) assay, which included consecutive association phases followed by a single dissociation phase. Pre‐assay simulations using the Kinetic Simulator feature of SPR Analyzer 4 software were used to optimize analyte concentration ranges and association/dissociation times. A reference blank injection was included for double referencing, and a single dissociation curve was recorded for the highest analyte concentration.
Sensorgrams were analyzed using the Kinetic Titration model, which was integrated into the global kinetic fitting model of the SPR Analyzer 4 software. This approach allowed for baseline correction and improved the reliability of kinetic parameters, including the Kon, Koff, and KD.
TCK‐derived kinetic parameters were compared across multiple runs and confirmed using Multi Injection Cycle Kinetics to validate reproducibility and accuracy.

R2R3 (P301L) tau peptide [3] = target: T1, R2R3 (P301L) tau peptide; experiment: Atomic force microscopy of R2R3 (P301L) aggregates; format: biochemical; conditions: compound 10 μM, 48 h
Description: Aggregates collected after 48 h of aggregation were processed for AFM analysis as described previously (Annadurai, Malina, Malohlava, et al., [2022]).

[4] = system: Tau RD P301S FRET Biosensor cells; experiment: Biosensor cells treated with compound alone, no exogenous seeds; format: cell-based; conditions: 48 h
Description: Figure S17. […] Tau RD P301S FRET Biosensor cells were treated with PUR or OLC at the indicated concentrations for 48 h in the absence of any exogenous tau seeds or aggregation mixtures. Cells were then imaged under the same conditions described in Figure 5 to assess spontaneous FRET signal (CFP/YFP inclusions) as a readout of intracellular tau aggregation. […] Scale bar: 100 µm.

[5] = system: preformed R2R3 (V287I) fibrils; experiment: Elongation of preformed R2R3 (V287I) fibrils, ThT; format: biochemical; conditions: R2R3 V287I pre-aggregated 24 h, compound 10 μM
Description: as §1, §2

R2R3 (WT) tau peptide = target: T2, R2R3 (WT) tau peptide (Homo sapiens, UniProt P10636); experiment: SPR titration cycle kinetics, immobilized R2R3 (WT) peptide; format: binding
T2 construct: Peptides spanning R2R3—including PHF6 and PHF6*; purchased ProteoGenix (Schiltigheim, France); host or cells: chemical synthesis (custom peptide)
T2 sequence (P10636 592-653 limits assumed): as the sequence (P10636 592-653 P618L) above, with L27P counted along it
Description: as §3, §4
as §5, with “specificity. […]” for “specificity.”
as §6, with “For kinetic studies, PUR was tested at 20–30 μM, while OLC was tested at 25–100 μM using two‐fold serial dilutions.” left out
SPR binding kinetics were assessed using the titration cycle kinetics (TCK) assay, which included consecutive association phases followed by a single dissociation phase. […] A reference blank injection was included for double referencing, and a single dissociation curve was recorded for the highest analyte concentration.
Sensorgrams were analyzed using the Kinetic Titration model, which was integrated into the global kinetic fitting model of the SPR Analyzer 4 software. […]

[6] = design: method as in Viswanathan et al., [2020]; conditions: in vitro studies; ref Viswanathan et al., [2020]; cited from earlier work
PHF6 = system: PHF6; design: method as in Viswanathan et al., [2020]; conditions: reduced efficacy at higher peptide:compound ratios such as 5:1; ref Viswanathan et al., [2020]; cited from earlier work

C/C=C(/C=O)[C@@H](CC=O)CC(=O)OCCc1ccc(O)cc1 [OLC, oleocanthal]
elongation of preformed fibrils [1]: inhibit the elongation
Kon (R2R3 (P301L) tau peptide [2]; SPR, R2R3 P301L): 52.36 M⁻¹ s⁻¹
koff (R2R3 (P301L) tau peptide [2]; SPR, R2R3 P301L): 8.26e-05 s⁻¹
Kd (R2R3 (P301L) tau peptide [2]; SPR, R2R3 P301L peptide immobilized, 25°C, PBS pH 7.4, read-out: KD): 1.58 µM
AFM morphology of aggregates (R2R3 (P301L) tau peptide [3]): only sparse fibrils
induction of endogenous tau aggregation (FRET-positive inclusions) by compound alone [4]: No FRET-positive aggregates were detected; also recorded: no FRET‐positive inclusions were detected
elongation of preformed fibrils [5]: inhibit the elongation

O=C1c2ccccc2C(=O)c2c(O)c(O)cc(O)c21 [PUR, purpurin]
koff (R2R3 (WT) tau peptide; R2R3 WT): 0.000265 s⁻¹
kon (R2R3 (WT) tau peptide; R2R3 WT): 61 M⁻¹ s⁻¹
Kd (R2R3 (WT) tau peptide; R2R3 WT peptide immobilized, 25°C, PBS pH 7.4): 4.35 µM
elongation of preformed fibrils [1]: inhibit the elongation
Kd (R2R3 (P301L) tau peptide [2]): 14.8 µM
kon (R2R3 (P301L) tau peptide [2]; SPR, R2R3 P301L): 26.4 M⁻¹ s⁻¹
koff (R2R3 (P301L) tau peptide [2]; SPR, R2R3 P301L, read-out: Koff): 0.00039 s⁻¹
BBB permeation [6]: can permeate the BBB
PHF6 aggregation inhibition (PHF6): inhibits PHF6 aggregation
AFM morphology of aggregates (R2R3 (P301L) tau peptide [3]): only sparse fibrils
induction of endogenous tau aggregation (FRET-positive inclusions) by compound alone [4]: No FRET-positive aggregates were detected; also recorded: no FRET‐positive inclusions were detected
elongation of preformed fibrils [5]: inhibit the elongation
